The values that follow come from US9428439B2, “Hydrobenzamide derivatives as inhibitors of Hsp90” (priority 2006, dated 2016).

Data set [1] is described as follows: Hygroscopicity. In kind it is physicochemical.
Data set [2] in a line: Rate of solubility. In kind it is physicochemical. Particulars: compared with the free base and other salts tested.
For data set [3], the target named is T1, human Hsp90α N-terminal domain (Homo sapiens, UniProt P07900).
T1 construct: purification of the Human Hsp90α N-terminal domain were performed according to published methods; made in house
The experiment in a line: Isothermal titration calorimetry (ITC). The format is binding. As to the method:
The ability of the compounds of the invention to bind to human Hsp90 proteins was determined using isothermal titration calorimetry. Isothermal titration calorimetry (ITC) experiments were performed with a VP-ITC titration calorimeter (Microcal Inc., Northampton, Mass., USA). Cloning, expression, and purification of the Human Hsp90α N-terminal domain were performed according to published methods (Jez, J. M. et al, Chem. […] All solutions were filtered and degassed prior to a titration being carried out. The enthalpy change resulting from each injection of ligand was obtained through integration of the calorimetric signal. Data were analysed using Origin 7.0 (Microcal Software Inc., Northampton, Mass.). Heats of dilution were estimated using the final injections of each individual titration and subtracted before data fitting. […] For weakly binding compounds a low c-value ITC method was used (Turnbull […]. Am. Chem. Soc. 2003 Dec. 3; 125(48):14859-66) in which the protein was present at 10-20 μM in the calorimetric cell and the compound concentration was 1-20 mM in the injection syringe. In this type of experiment the stoichiometry parameter (N) was locked at 1 for data fitting. […] In rare cases where compound solubility was limiting, the compound solution was placed in the calorimetric cell and titrated with protein from the injection syringe, maintaining a c-value between 5 and 1000. […]

Data set [4] addresses hERG (Homo sapiens, UniProt Q12809). In words: hERG activity. On the technique in general: The hERG channel carries a current that helps repolarise heart muscle cells.
In data set [5] the test system is human colon cancer cell line HCT116. In words: Anti-proliferative activity (Alamar Blue assay). The conditions noted are these: HCT-116. The format is cell-based. The method, then: The anti-proliferative activities of compounds of the invention can be determined by measuring the ability of the compounds to inhibition of cell growth in a number of cell lines such as the human colon cancer cell line HCT116. Inhibition of cell growth is measured using the Alamar Blue assay (Nociari, M. M, Shalev, A., Benias, P., Russo, C. Journal of Immunological Methods 1998, 213, 157-167). The method is based on the ability of viable cells to reduce resazurin to its fluorescent product resorufin. For each proliferation assay cells are plated onto 96 well plates and allowed to recover for 16 hours prior to the addition of inhibitor compounds for a further 72 hours. At the end of the incubation period 10% (v/v) Alamar Blue is added and incubated for a further 6 hours prior to determination of fluorescent product at […]. In the case of the non-proliferating cell assay cells are maintained at confluence for 96 hour prior to the addition of inhibitor compounds for a further 72 hours. The number of viable cells is determined by Alamar Blue assay as before. Cell lines can be obtained from the ECACC (European Collection of cell Cultures).
A general note: Resazurin is reduced to fluorescent resorufin, in cell work by metabolically active cells.

Bounds are passed on as bounds.

hERG, sequence (Q12809 whole entry): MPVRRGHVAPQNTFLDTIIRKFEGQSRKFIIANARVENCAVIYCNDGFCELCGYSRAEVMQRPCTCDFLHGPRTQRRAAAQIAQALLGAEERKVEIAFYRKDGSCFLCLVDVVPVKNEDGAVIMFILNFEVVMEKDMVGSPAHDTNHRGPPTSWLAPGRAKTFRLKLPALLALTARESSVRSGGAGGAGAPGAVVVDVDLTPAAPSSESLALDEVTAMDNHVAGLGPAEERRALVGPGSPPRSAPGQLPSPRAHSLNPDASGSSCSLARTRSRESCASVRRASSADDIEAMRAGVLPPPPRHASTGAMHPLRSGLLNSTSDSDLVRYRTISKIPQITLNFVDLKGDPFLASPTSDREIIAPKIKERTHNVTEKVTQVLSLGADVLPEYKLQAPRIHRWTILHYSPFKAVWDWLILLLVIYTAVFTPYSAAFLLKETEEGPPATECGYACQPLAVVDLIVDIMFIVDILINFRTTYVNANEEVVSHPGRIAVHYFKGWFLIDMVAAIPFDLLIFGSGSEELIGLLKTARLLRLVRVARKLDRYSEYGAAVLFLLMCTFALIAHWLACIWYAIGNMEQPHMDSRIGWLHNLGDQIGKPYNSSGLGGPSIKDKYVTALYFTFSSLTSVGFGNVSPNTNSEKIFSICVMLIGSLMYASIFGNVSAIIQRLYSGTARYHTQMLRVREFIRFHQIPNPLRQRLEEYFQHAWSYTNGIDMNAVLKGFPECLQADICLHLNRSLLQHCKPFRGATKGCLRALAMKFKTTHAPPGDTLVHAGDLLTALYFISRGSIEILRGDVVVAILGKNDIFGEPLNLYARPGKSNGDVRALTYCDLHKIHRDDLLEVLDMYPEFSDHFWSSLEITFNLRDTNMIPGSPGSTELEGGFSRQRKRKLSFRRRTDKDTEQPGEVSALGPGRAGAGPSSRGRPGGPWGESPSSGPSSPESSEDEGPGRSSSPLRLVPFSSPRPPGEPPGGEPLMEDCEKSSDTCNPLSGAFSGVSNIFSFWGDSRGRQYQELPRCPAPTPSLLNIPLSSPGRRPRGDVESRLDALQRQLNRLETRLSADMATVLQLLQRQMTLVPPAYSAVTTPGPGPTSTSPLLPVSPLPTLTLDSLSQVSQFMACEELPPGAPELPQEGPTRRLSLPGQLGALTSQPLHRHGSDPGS

Consider `CC(C)c1cc(C(=O)N2Cc3ccc(CN4CCN(C)CC4)cc3C2)c(O)cc1O.C[C@H](O)C(=O)O` [(2,4-dihydroxy-5-isopropyl-phenyl)-[5-(4-methyl-piperazin-1-ylmethyl)-1,3-dihydro-isoindol-2-yl]-methanone L-lactate salt], for which the hygroscopicity entry in data set [1] is recorded as “non-hygroscopic”. In addition, the rate of solubility result in data set [2] is “better rate of solubility than the free base and other salts tested”.

Take `CC(C)c1cc(C(=O)N2Cc3ccc(CN4CCN(C)CC4)cc3C2)c(O)cc1O` [Compound (1), (2,4-dihydroxy-5-isopropyl-phenyl)-[5-(4-methyl-piperazin-1-ylmethyl)-1,3-dihydro-isoindol-2-yl]-methanone]: the Kd (as a rule, the constant that tells how readily two partners part at equilibrium) in data set [3] is below 100 nM. In data set [4], the hERG activity entry is “low hERG activity” and the “mean IC50 value against hERG relative to the IC50 values of the compound in cellular proliferation assays” value is “greater than 30 times”. In addition, the IC50 – broadly, the concentration that gives 50% inhibition – in data set [4] (read-out: mean IC50 value against hERG) was above 15000 nM. The same compound registered an IC50 in data set [5] below 100 nM.
